In ChEMBL document CHEMBL1136269, “Discovery of a series of (4,5-dihydroimidazol-2-yl)-biphenylamine 5-HT7 agonists” (Bioorg Med Chem Lett, 2003):

Tests used:
[1] = molecular target: T1, Adrenergic receptor alpha-2 (Rattus norvegicus, UniProt P22086+P19328+P22909); assay: Affinity for Alpha-2 adrenergic receptor of rat cortical membranes
T1 sequence (P22086 whole entry): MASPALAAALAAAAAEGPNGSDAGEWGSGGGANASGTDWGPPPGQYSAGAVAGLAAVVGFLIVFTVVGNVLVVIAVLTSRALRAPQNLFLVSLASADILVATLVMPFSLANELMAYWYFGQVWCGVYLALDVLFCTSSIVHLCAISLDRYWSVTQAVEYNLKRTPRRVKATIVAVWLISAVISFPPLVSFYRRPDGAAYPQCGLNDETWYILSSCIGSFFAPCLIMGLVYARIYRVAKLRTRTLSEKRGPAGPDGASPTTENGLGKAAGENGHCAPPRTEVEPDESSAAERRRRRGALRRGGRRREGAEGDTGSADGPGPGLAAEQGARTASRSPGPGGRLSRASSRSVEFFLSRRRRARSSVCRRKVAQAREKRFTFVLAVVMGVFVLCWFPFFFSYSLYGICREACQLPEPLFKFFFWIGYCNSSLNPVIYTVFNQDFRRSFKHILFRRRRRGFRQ
T1 sequence (P19328 whole entry): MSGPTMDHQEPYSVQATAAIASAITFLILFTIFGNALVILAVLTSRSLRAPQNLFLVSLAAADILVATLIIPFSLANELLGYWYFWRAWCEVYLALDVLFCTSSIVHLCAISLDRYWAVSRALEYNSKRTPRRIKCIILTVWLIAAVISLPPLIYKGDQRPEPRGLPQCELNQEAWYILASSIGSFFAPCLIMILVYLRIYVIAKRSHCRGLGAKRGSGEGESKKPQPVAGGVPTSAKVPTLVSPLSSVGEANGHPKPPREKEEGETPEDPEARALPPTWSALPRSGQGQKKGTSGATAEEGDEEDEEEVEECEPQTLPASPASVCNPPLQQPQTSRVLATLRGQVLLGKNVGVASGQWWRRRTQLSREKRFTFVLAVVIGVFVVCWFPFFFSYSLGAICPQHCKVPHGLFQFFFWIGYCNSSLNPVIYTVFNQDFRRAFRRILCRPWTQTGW
T1 sequence (P22909 whole entry): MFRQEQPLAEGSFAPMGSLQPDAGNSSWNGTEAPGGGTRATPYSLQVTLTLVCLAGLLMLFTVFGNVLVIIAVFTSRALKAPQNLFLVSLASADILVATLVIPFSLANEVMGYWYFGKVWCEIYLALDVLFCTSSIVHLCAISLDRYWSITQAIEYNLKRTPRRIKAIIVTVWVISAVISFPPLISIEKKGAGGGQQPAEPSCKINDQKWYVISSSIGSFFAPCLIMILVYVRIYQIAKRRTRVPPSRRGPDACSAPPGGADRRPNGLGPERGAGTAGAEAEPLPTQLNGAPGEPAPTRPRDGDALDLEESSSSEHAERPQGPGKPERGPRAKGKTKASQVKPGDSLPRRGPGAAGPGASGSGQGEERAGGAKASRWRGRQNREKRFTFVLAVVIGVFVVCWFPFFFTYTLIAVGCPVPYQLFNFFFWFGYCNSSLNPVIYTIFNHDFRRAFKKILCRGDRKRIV

[2] = molecular target: T2, Adrenergic receptor alpha-1 (Rattus norvegicus, UniProt P15823+P23944+P43140); assay: Affinity for Alpha-1 adrenergic receptor of rat cortical membranes
T2 sequence (P15823 whole entry): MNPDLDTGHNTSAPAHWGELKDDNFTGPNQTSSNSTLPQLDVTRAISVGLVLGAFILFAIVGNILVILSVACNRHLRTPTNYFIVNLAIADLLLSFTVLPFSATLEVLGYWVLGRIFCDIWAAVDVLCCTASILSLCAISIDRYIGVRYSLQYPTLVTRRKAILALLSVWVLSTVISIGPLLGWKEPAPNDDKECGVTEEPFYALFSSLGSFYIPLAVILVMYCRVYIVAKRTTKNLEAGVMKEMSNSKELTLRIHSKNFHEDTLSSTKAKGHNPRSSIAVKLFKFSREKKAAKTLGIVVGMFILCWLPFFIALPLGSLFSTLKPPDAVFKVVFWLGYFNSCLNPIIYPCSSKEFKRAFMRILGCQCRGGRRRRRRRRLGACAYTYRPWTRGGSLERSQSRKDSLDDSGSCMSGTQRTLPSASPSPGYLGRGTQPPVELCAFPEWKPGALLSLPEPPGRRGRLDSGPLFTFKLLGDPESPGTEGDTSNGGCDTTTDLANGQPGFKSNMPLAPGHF
T2 sequence (P23944 whole entry): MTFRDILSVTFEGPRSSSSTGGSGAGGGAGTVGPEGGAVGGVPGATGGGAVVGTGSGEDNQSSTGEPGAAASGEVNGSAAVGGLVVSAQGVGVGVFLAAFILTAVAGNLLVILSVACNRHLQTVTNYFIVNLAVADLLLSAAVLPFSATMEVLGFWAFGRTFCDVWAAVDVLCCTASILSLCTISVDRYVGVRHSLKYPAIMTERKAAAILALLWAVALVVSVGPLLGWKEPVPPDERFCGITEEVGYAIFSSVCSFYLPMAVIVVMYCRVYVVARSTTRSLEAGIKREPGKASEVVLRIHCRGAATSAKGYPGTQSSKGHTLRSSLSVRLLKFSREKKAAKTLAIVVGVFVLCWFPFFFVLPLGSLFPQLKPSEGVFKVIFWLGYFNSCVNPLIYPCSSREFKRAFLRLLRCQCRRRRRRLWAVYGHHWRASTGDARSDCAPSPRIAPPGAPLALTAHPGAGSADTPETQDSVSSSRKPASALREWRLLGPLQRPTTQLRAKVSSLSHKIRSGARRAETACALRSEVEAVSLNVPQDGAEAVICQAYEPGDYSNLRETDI
T2 sequence (P43140 whole entry): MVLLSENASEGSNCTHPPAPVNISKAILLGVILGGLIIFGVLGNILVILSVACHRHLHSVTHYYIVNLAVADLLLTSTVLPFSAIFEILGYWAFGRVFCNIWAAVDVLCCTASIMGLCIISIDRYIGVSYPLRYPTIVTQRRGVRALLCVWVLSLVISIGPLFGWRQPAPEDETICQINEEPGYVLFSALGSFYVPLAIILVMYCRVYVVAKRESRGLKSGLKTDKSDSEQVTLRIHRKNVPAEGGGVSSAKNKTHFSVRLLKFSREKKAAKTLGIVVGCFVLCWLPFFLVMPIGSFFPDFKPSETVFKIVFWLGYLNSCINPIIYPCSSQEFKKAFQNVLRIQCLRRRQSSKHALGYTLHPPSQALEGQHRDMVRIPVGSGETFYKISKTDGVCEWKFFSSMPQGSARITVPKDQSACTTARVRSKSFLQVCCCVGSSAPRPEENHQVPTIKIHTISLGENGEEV

[3] = molecular target: 5-hydroxytryptamine receptor 7 (Rattus norvegicus, UniProt P32305); assay: Inhibition of [3H]-5-CT binding to 5-hydroxytryptamine 7 receptor of rat cortical membranes; assay type: cell membranes, Membrane
Sequence of 5-hydroxytryptamine receptor 7 (P32305 whole entry): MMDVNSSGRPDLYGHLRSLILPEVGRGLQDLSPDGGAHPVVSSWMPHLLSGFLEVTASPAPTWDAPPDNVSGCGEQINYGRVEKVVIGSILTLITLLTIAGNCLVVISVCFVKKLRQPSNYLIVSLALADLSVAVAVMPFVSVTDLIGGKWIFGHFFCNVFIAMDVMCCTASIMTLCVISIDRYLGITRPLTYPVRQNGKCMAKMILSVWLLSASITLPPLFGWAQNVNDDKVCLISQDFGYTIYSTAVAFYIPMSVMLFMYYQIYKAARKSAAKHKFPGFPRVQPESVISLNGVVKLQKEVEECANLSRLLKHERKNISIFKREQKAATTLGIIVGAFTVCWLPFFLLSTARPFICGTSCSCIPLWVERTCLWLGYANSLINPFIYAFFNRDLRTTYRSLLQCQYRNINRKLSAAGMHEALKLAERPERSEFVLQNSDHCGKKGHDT

Row | SMILES | Log Ki [1] | Log Ki [2] | Ki [3] [nM]
1 | COc1ccc(-c2cccc(NC3=NCCN3)c2C)cc1 | -7.59 | -6.58 | 27.5
2 | Cc1c(NC2=NCCN2)cccc1-c1cccnc1 | -8.29 | -6.59 | 257
3 | Cc1c(NC2=NCCN2)cccc1-c1cccc(Cl)c1 | -7.62 | -6.88 | 26.3
4 | Cc1c(NC2=NCCN2)cccc1-c1cccs1 | -8.21 | -6.99 | 16.6
5 | CC(=O)c1cccc(-c2cccc(NC3=NCCN3)c2C)c1.Cl | -7.49 | -7.05 | 155
6 | Cc1c(NC2=NCCN2)cccc1-c1cccc(C#N)c1.Cl | -7.66 | -7.04 | 170
7 | Cc1c(NC2=NCCN2)cccc1-c1ccsc1 | -7.96 | -7.16 | 31.6
8 | Cc1c(NC2=NCCN2)cccc1-c1cccc(C(F)(F)F)c1 | -7.1 | -6.59 | 45.7
9 | Cc1c(NC2=NCCN2)cccc1-c1cccc(F)c1 | -7.58 | -6.56 | 28.2
10 | Cc1cccc(-c2cccc(NC3=NCCN3)c2C)c1 | -7.75 | -6.78 | 21.4
11 | Cc1c(NC2=NCCN2)cccc1-c1ccccc1 | -7.71 | -6.68 | 16.2
12 | COc1ccc(-c2cccc(NC3=NCCN3)c2C)c(OC)c1 | -7.13 | -6.68 | 40.7
13 | COc1cccc(-c2cccc(NC3=NCCN3)c2C)c1 | -8 | -7.36 | 35.5
14 | Cc1c(NC2=NCCN2)cccc1-c1cccc(C(C)C)c1 | -6.96 | -5.92 | 182
